Legend:
Test in all cases: drug sensitivity score (DSS3, normalised partial AUC of % inhibition dose-response) (DSS (score)); higher = more sensitive (stronger inhibition of viability); extreme values may be limits of the assay
FMOC22 = patient-derived mucinous ovarian cancer cells; conditions: 72 h; library: FO5A; assay format: 2D, 384-well, CellTiter-Glo
Outline: (§1)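 Cells were dispensed onto 384-well flat clear-bottom plates already holding compounds at five concentrations over a 10,000-fold range, using patient-derived ovarian cancer cells at passage under 10. Incubation lasted 72 h at 37 °C in 5% CO2, after which CellTiter-Glo viability data were processed in Breeze. Higher drug sensitivity scores, each a partial area under the percent-inhibition dose-response curve divided by the log of the upper asymptote, mean more sensitive cells.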

FMOC14 = patient-derived high-grade serous ovarian cancer cells; conditions: 72 h; library: FO5A; assay format: 2D, 384-well, CellTiter-Glo
Outline: as §1

FMOC03 = patient-derived mucinous ovarian cancer cells; conditions: 72 h; library: FO5A; assay format: 2D, 384-well, CellTiter-Glo
Outline: as §1

FMOC24 = patient-derived high-grade serous ovarian cancer cells; conditions: 72 h; library: FO5A; assay format: 2D, 384-well, CellTiter-Glo
Outline: as §1

FMOC25_2 = patient-derived low-grade serous ovarian cancer cells; conditions: 72 h; library: FO5A; assay format: 2D, 384-well, CellTiter-Glo
Outline: as §1

FMOC02_2 = patient-derived low-grade serous ovarian cancer cells; conditions: 72 h; library: FO5A; assay format: 2D, 384-well, CellTiter-Glo
Outline: as §1

FMOC02_3 = patient-derived low-grade serous ovarian cancer cells; conditions: 72 h; library: FO5A; assay format: 2D, 384-well, CellTiter-Glo
Outline: as §1

FMOC09 = patient-derived high-grade serous ovarian cancer cells; conditions: 72 h; library: FO5A; assay format: 2D, 384-well, CellTiter-Glo
Outline: as §1

FMOC25_1 = patient-derived low-grade serous ovarian cancer cells; conditions: 72 h; library: FO4B; assay format: 2D, 384-well, CellTiter-Glo
Outline: as §1

FMOC06 = patient-derived mucinous ovarian cancer cells; conditions: 72 h; library: FO5A; assay format: 2D, 384-well, CellTiter-Glo
Outline: as §1

CN1CCN(CCOc2cc(OC3CCOCC3)c3c(Nc4c(Cl)ccc5c4OCO5)ncnc3c2)CC1 [Saracatinib]
drug sensitivity score (FMOC22): 0.6 | drug sensitivity score (FMOC14): 5 | drug sensitivity score (FMOC03): 9.4 | drug sensitivity score (FMOC24): 4.7 | drug sensitivity score (FMOC25_2): 10 | drug sensitivity score (FMOC02_2): 15.6 | drug sensitivity score (FMOC02_3): 16.7 | drug sensitivity score (FMOC09): 11 | drug sensitivity score (FMOC25_1): 5.3 | drug sensitivity score (FMOC06): 4.6

O=C(NC1CCNCC1)c1n[nH]cc1NC(=O)c1c(Cl)cccc1Cl [AT7519]
drug sensitivity score (FMOC22): 10 | drug sensitivity score (FMOC14): 12.5 | drug sensitivity score (FMOC03): 12.1 | drug sensitivity score (FMOC24): 15.2 | drug sensitivity score (FMOC25_2): 21.3 | drug sensitivity score (FMOC02_2): 17.8 | drug sensitivity score (FMOC02_3): 22.1 | drug sensitivity score (FMOC09): 12.3 | drug sensitivity score (FMOC25_1): 17.6 | drug sensitivity score (FMOC06): 16.3

N.N.[Cl][Pt][Cl] [Cisplatin]
drug sensitivity score (FMOC22): 6.3 | drug sensitivity score (FMOC14): 3.7 | drug sensitivity score (FMOC03): 4 | drug sensitivity score (FMOC24): 18.6 | drug sensitivity score (FMOC25_2): 6 | drug sensitivity score (FMOC02_2): 9.2 | drug sensitivity score (FMOC02_3): 9.1 | drug sensitivity score (FMOC09): 16.6 | drug sensitivity score (FMOC25_1): 7.3 | drug sensitivity score (FMOC06): 6

Nc1nc(Cl)nc2c1ncn2[C@@H]1O[C@H](CO)[C@@H](O)[C@@H]1F [Clofarabine]
drug sensitivity score (FMOC22): 10.5 | drug sensitivity score (FMOC14): 0 | drug sensitivity score (FMOC03): 4.1 | drug sensitivity score (FMOC24): 4.9 | drug sensitivity score (FMOC25_2): 16.5 | drug sensitivity score (FMOC02_2): 8.9 | drug sensitivity score (FMOC02_3): 13.7 | drug sensitivity score (FMOC09): 7.8 | drug sensitivity score (FMOC25_1): 8.5 | drug sensitivity score (FMOC06): 5.3

CCCCC(=O)OCC(=O)[C@]1(O)Cc2c(O)c3c(c(O)c2[C@@H](O[C@H]2C[C@H](NC(=O)C(F)(F)F)[C@H](O)[C@H](C)O2)C1)C(=O)c1c(OC)cccc1C3=O [Valrubicin]
drug sensitivity score (FMOC22): 7.8 | drug sensitivity score (FMOC14): 5.1 | drug sensitivity score (FMOC03): 5.3 | drug sensitivity score (FMOC24): 7 | drug sensitivity score (FMOC25_2): 9 | drug sensitivity score (FMOC02_2): 6.8 | drug sensitivity score (FMOC02_3): 9.2 | drug sensitivity score (FMOC09): 7.1 | drug sensitivity score (FMOC25_1): 9.1 | drug sensitivity score (FMOC06): 6.5

Nc1nc2[nH]cc(CCc3ccc(C(=O)N[C@@H](CCC(=O)O)C(=O)O)cc3)c2c(=O)[nH]1 [Pemetrexed]
drug sensitivity score (FMOC22): 3.4 | drug sensitivity score (FMOC14): 0 | drug sensitivity score (FMOC03): 2.2 | drug sensitivity score (FMOC24): 1.55 | drug sensitivity score (FMOC25_2): 3.3 | drug sensitivity score (FMOC02_2): 0 | drug sensitivity score (FMOC02_3): 0 | drug sensitivity score (FMOC09): 0 | drug sensitivity score (FMOC25_1): 0 | drug sensitivity score (FMOC06): 0.3

CC(C)Oc1ccc(C(=O)N[C@H](CNC(=O)CN(C)C)Cc2ccc(-c3cn4cccc([C@H](C)O)c4n3)cc2)cc1Cl
drug sensitivity score (FMOC22): 5.7 | drug sensitivity score (FMOC14): 3.5 | drug sensitivity score (FMOC03): 5.5 | drug sensitivity score (FMOC24): 4.8 | drug sensitivity score (FMOC25_2): 8.8 | drug sensitivity score (FMOC02_2): 3.8 | drug sensitivity score (FMOC02_3): 11.9 | drug sensitivity score (FMOC09): 7.3 | drug sensitivity score (FMOC25_1): 3.3 | drug sensitivity score (FMOC06): 2.7

CCCCc1nc2cc(/C=C/C(=O)NO)ccc2n1CCN(CC)CC [Pracinostat]
drug sensitivity score (FMOC22): 8.7 | drug sensitivity score (FMOC14): 12.4 | drug sensitivity score (FMOC03): 12.3 | drug sensitivity score (FMOC24): 14.8 | drug sensitivity score (FMOC25_2): 10.7 | drug sensitivity score (FMOC02_2): 13.3 | drug sensitivity score (FMOC02_3): 13.3 | drug sensitivity score (FMOC09): 5.8 | drug sensitivity score (FMOC25_1): 11.6 | drug sensitivity score (FMOC06): 12.7

CC/C(=C(\c1ccc(O)cc1)c1ccc(OCCN(C)C)cc1)c1ccccc1 [4-hydroxytamoxifen]
drug sensitivity score (FMOC22): 5.7 | drug sensitivity score (FMOC14): 6.1 | drug sensitivity score (FMOC03): 6.1 | drug sensitivity score (FMOC24): 7.3 | drug sensitivity score (FMOC25_2): 3.2 | drug sensitivity score (FMOC02_2): 6.8 | drug sensitivity score (FMOC02_3): 6.4 | drug sensitivity score (FMOC09): 5.1 | drug sensitivity score (FMOC25_1): 2 | drug sensitivity score (FMOC06): 7.3

Cc1cc(-c2nc(-c3ccc(OC(F)(F)F)cc3)no2)nn1Cc1ccnc(N2CCN(C3CC3)CC2)c1 [BAY 87-2243]
drug sensitivity score (FMOC22): 6 | drug sensitivity score (FMOC14): 3.1 | drug sensitivity score (FMOC03): 6.4 | drug sensitivity score (FMOC24): 0 | drug sensitivity score (FMOC25_2): 5.3 | drug sensitivity score (FMOC02_2): 0 | drug sensitivity score (FMOC02_3): 0 | drug sensitivity score (FMOC09): 0 | drug sensitivity score (FMOC25_1): 2.2 | drug sensitivity score (FMOC06): 0

COc1cc(C(=O)O)ccc1NC(=O)[C@@H]1N[C@@H](CC(C)(C)C)[C@](C#N)(c2ccc(Cl)cc2F)[C@H]1c1cccc(Cl)c1F [Idasanutlin]
drug sensitivity score (FMOC22): 3.6 | drug sensitivity score (FMOC14): 2.5 | drug sensitivity score (FMOC03): 2.6 | drug sensitivity score (FMOC24): 1.9 | drug sensitivity score (FMOC25_2): 16.6 | drug sensitivity score (FMOC02_2): 18.5 | drug sensitivity score (FMOC02_3): 22.7 | drug sensitivity score (FMOC09): 2 | drug sensitivity score (FMOC25_1): 10.5 | drug sensitivity score (FMOC06): 5.3

CNc1ncc2cc(-c3cc(NC(=O)NCCC(C)(C)C)c(F)cc3C)c(C)nc2n1
drug sensitivity score (FMOC22): 9.3 | drug sensitivity score (FMOC14): 1.3 | drug sensitivity score (FMOC03): 12 | drug sensitivity score (FMOC24): 1.7 | drug sensitivity score (FMOC25_2): 14.8 | drug sensitivity score (FMOC02_2): 12.5 | drug sensitivity score (FMOC02_3): 16.9 | drug sensitivity score (FMOC09): 9.5 | drug sensitivity score (FMOC25_1): 11.1 | drug sensitivity score (FMOC06): 11.8

CC(=O)OC[C@H]1O[C@@H]([S-])[C@H](OC(C)=O)[C@@H](OC(C)=O)[C@@H]1OC(C)=O.CCP(CC)CC.[Au+] [Auranofin]
drug sensitivity score (FMOC22): 3.1 | drug sensitivity score (FMOC14): 5.2 | drug sensitivity score (FMOC03): 1.3 | drug sensitivity score (FMOC24): 1.1 | drug sensitivity score (FMOC25_2): 3.8 | drug sensitivity score (FMOC02_2): 0 | drug sensitivity score (FMOC02_3): 1.8 | drug sensitivity score (FMOC09): 3.5 | drug sensitivity score (FMOC25_1): 0 | drug sensitivity score (FMOC06): 4.1

COc1cc(NS(C)(=O)=O)ccc1Nc1c2ccccc2nc2ccccc12 [Amsacrine]
drug sensitivity score (FMOC22): 8.3 | drug sensitivity score (FMOC14): 2.2 | drug sensitivity score (FMOC03): 6 | drug sensitivity score (FMOC24): 8.05 | drug sensitivity score (FMOC25_2): 7.1 | drug sensitivity score (FMOC02_2): 5.2 | drug sensitivity score (FMOC02_3): 7 | drug sensitivity score (FMOC09): 4.7 | drug sensitivity score (FMOC25_1): 8.2 | drug sensitivity score (FMOC06): 4.5

Cc1nc(Nc2n[nH]c3c2CN(C(=O)N[C@H](CN(C)C)c2ccccc2)C3(C)C)c2sccc2n1
drug sensitivity score (FMOC22): 10.5 | drug sensitivity score (FMOC14): 6.5 | drug sensitivity score (FMOC03): 10.6 | drug sensitivity score (FMOC24): 8.1 | drug sensitivity score (FMOC25_2): 26.6 | drug sensitivity score (FMOC02_2): 12.8 | drug sensitivity score (FMOC02_3): 20.9 | drug sensitivity score (FMOC09): 10.2 | drug sensitivity score (FMOC25_1): 16.7 | drug sensitivity score (FMOC06): 13.7

Cc1cc(OCc2nnc(SC3CCCC3)n2-c2cccnc2)ccc1-c1ccc(S(C)(=O)=O)cc1 [NMS-873]
drug sensitivity score (FMOC22): 8.8 | drug sensitivity score (FMOC14): 9.2 | drug sensitivity score (FMOC03): 9 | drug sensitivity score (FMOC24): 9.15 | drug sensitivity score (FMOC25_2): 9.6 | drug sensitivity score (FMOC02_2): 8.3 | drug sensitivity score (FMOC02_3): 10 | drug sensitivity score (FMOC09): 5.3 | drug sensitivity score (FMOC25_1): 8.9 | drug sensitivity score (FMOC06): 8

From the supplement of paper PMC9938120
